Results from patent US5804554A, “Calcium channel blocking polypeptides from filistata hibernalis” (priority 1995, dated 1998).

Test system: calcium channels
Conditions: read-out: IC50 values for blocking calcium channels; rat cerebellar granule cells, fura2 fluorescence, 37° C.

`COc1ccc(CCN(C)CCCC(C#N)(c2ccc(OC)c(OC)c2)C(C)C)cc1OC` (stereo not shown) [Verapamil] was tested, and the IC50 was 4.8 µM.
